Laboratory results from patent US12384753B2, “17-beta-hydroxysteroid dehydrogenase type 13 inhibitors and methods of use thereof” (Enanta Pharmaceuticals, Inc., priority 2021, dated 2025).
pIC50: −log10 of the molar value.

The molecules below were run against Recombinant human HSD17B13 (Homo sapiens (Human), UniProt Q7Z5P4) (assay: HSD17B13 rapid-fire mass spectrometry assay (RF/MS assay)). Conditions: inhibition of HSD17B13; LTB4 10 μM, NAD+ 0.5 mM, RT 3 h; IC50 ranges A-E.
Assay type: biochemical
Procedure, shortened: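 Sf9-expressed human HSD17B13 (80 nM) with 10 μM LTB4 and 0.5 mM NAD+, incubated with compound (0–100 μM) for 3 h at RT in Tris pH 7.5/BSA/Tween-20. After formic acid quench, LTB4 conversion to 12-oxo-LTB4 measured by RapidFire MS/MS. IC50 from normalised residual activity, duplicates.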

Chain of Recombinant human HSD17B13 (Q7Z5P4 20-300): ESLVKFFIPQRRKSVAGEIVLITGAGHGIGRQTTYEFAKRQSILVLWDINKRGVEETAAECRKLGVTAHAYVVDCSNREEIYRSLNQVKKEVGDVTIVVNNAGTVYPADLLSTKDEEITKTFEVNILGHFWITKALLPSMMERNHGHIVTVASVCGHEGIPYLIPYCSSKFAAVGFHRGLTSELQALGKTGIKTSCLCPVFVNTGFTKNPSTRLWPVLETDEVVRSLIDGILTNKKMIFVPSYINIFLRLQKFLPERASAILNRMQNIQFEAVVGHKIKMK

| Compound | pIC50 |
| --- | --- |
| COc1cc(C(=O)O)c(F)cc1NS(=O)(=O)c1csc(-c2ccc(C3CCC(C)(C)CC3)cc2OC(F)(F)F)n1 [Example 543] | > 7.00 |
| COc1cc(C(=O)O)ccc1NS(=O)(=O)c1cccc(-c2ccc([C@H]3CC[C@H](C(F)(F)F)CC3)cc2)c1F [Example 475, 4-((2-fluoro-4′-((1r,4r)-4-(trifluoromethyl)cyclohexyl)-[1,1′-biphenyl])-3-sulfonamido)-3-methoxybenzoic acid] | > 7.00 |
| COc1ccc(-c2cccc(-c3ccc(S(=O)(=O)Nc4ccc(C(=O)O)cc4OC)s3)c2)cc1 [Example 253] | 6.30 to 7.00 |
| COc1cc(C(=O)O)c(F)cc1NS(=O)(=O)c1csc(-c2ccc(C3CCC(C)(C)CC3)c(C)c2)n1 [Example 528] | 6.30 to 7.00 |
| COc1cc(C(=O)O)ccc1NS(=O)(=O)c1csc(C2=CCC(c3ccccc3)CC2)n1 (stereo not shown) [Example 354] | > 7.00 |
| COc1cc(C(=O)O)ccc1NS(=O)(=O)c1ccc(-c2ccc(-c3ccc(F)cc3)cc2)s1 [Example 205] | 6.30 to 7.00 |
| O=C(O)c1ncc(NS(=O)(=O)c2cnc(-c3ccc(F)cc3)s2)cn1 [Example 106] | 4.00 to 6.00 |
| COc1cc(C(=O)O)c(F)cc1NS(=O)(=O)c1csc(-c2ccc(C3CCC(C)(C)CC3)cc2C(F)(F)F)n1 [Example 524, 4-((2-(4-(4,4-dimethylcyclohexyl)-2-(trifluoromethyl)phenyl)thiazole)-4-sulfonamido)-2-fluoro-5-methoxybenzoic acid] | > 7.00 |
| COc1cc(C(=O)O)ccc1NS(=O)(=O)c1csc(-c2ccccc2C)n1 [Example 125] | 6.00 to 6.30 |
| COc1cc(C(=O)O)ccc1NS(=O)(=O)N1Cc2nc(-c3ccc(C4CCCCC4)cc3)sc2C1 [Example 344] | 6.00 to 6.30 |
| O=C(O)c1cc(NS(=O)(=O)c2cnc(-c3ccc(F)cc3)s2)cs1 [Example 75] | 4.00 to 6.00 |
| COc1cc(C(=O)O)ccc1NS(=O)(=O)c1cnn(-c2ccc(F)cc2)c1 [Example 79] | 4.00 to 6.00 |
| COc1cc(C(=O)O)ccc1NS(=O)(=O)c1csc(N2CCN(c3ccc(OC(F)(F)F)cc3)CC2)n1 [Example 271] | 6.30 to 7.00 |
| CS(=O)(=O)c1cc(C(=O)O)ccc1NS(=O)(=O)c1cnc(-c2ccc(F)cc2)s1 [Example 115] | 4.00 to 6.00 |
| COc1cccc(-c2ccc(S(=O)(=O)Nc3ccc(C(=O)O)cc3OC)s2)c1 [Example 200] | > 7.00 |
| CC[C@H]1CC[C@H](c2ccc(-c3nc4cc(S(=O)(=O)Nc5cc(F)c(C(=O)O)cc5OC)ccc4s3)cc2)CC1 [Example 632] | 6.30 to 7.00 |
| COc1cc(C(=O)O)c(F)cc1NS(=O)(=O)c1ccn(-c2ccc([C@H]3CC[C@H](C(F)(F)F)CC3)cc2)n1 [Example 692] | 6.30 to 7.00 |
| COc1cc(C(=O)O)c(F)cc1NS(=O)(=O)c1csc(-c2ccc(C3=CCC(C(F)(F)F)CC3)c(OC(C)C)c2F)n1 (stereo not shown) [Example 810] | > 7.00 |
| COc1cc(C(=O)O)c(F)cc1NS(=O)(=O)c1csc(-c2ccc(-c3ccc(C(C)(F)F)cc3)cc2C(F)(F)F)n1 [Example 756] | > 7.00 |
| COc1cc(C(=O)O)ccc1NS(=O)(=O)c1csc(C#Cc2cccc(Cl)c2)n1 [Example 197] | > 7.00 |
| COc1cc(C(=O)O)ccc1NS(=O)(=O)c1csc(-c2c(C)ccc3ccccc23)n1 [Example 152] | 6.30 to 7.00 |
| COc1cc(C(=O)O)c(F)cc1NS(=O)(=O)c1csc(-c2ccc(C3=CCC(C)(C)CC3)nc2)n1 [Example 551] | 6.30 to 7.00 |

| Compound | pIC50 |
| --- | --- |
| COc1cc(C(=O)O)c(F)cc1NS(=O)(=O)c1ccn(-c2ccc([C@H]3CC[C@@H](C(C)C)CC3)cc2)n1 [Example 693] | 6.30 to 7.00 |
| COc1cc(C(=O)O)ccc1NS(=O)(=O)c1csc(N2CCCC(c3ccccc3)C2)n1 (stereo not shown) [Example 269] | 6.30 to 7.00 |
| COc1cc(C(=O)O)c(F)cc1NS(=O)(=O)c1csc(-c2ccc(C3=CCC(C(C)C)CC3)c(F)c2F)n1 (stereo not shown) [Example 771] | > 7.00 |
| COc1cc(C(=O)O)ccc1NS(=O)(=O)c1ccc(-c2cccc(-c3ccccc3)c2)s1 [Example 249, 4-((5-([1,1′-biphenyl]-3-yl)thiophene)-2-sulfonamido)-3-methoxybenzoic acid] | 6.30 to 7.00 |
| COc1cc(C(=O)O)c(F)cc1NS(=O)(=O)c1csc(-c2ccc(-c3cn[nH]c3)cc2)n1 [Example 644] | 6.30 to 7.00 |
| COc1cc(C(=O)O)c(F)cc1NS(=O)(=O)c1csc(-c2ccc(C3=CCC(C(C)C)CC3)cc2C(F)(F)F)n1 (stereo not shown) [Example 741] | > 7.00 |
| O=C(O)Cc1ccc(CNS(=O)(=O)c2cnc(-c3ccc(F)cc3)s2)cc1 [Example 30] | < 4.00 |
| COc1cc(C(=O)O)ccc1NS(=O)(=O)c1ccc(C#Cc2ccccc2)s1 [Example 168] | 6.30 to 7.00 |
| COc1cc(C(=O)O)c(F)cc1NS(=O)(=O)c1csc(-c2ccc(C3(O)CCC(C)(C)CC3)cc2)n1 [Example 748] | > 7.00 |
| COc1cc(C(=O)O)ccc1NS(=O)(=O)c1cccc(-c2ccc([C@H]3CC[C@@H](C(C)(C)C)CC3)cc2)c1F [Example 479, 4-((4′-((1s,4s)-4-(tert-butyl)cyclohexyl)-2-fluoro-[1,1′-biphenyl])-3-sulfonamido)-3-methoxybenzoic acid] | 6.30 to 7.00 |
| COc1cc(C(=O)O)c(F)cc1NS(=O)(=O)c1cnc(-c2ccc([C@H]3CC[C@H](C(C)C)CC3)cc2)s1 [Example 769] | 6.30 to 7.00 |
| COc1cc(C(=O)O)ccc1NS(=O)(=O)c1cnc(-c2ccc([C@H]3CC[C@H](C(F)(F)F)CC3)cc2)s1 [Example 713] | > 7.00 |
| COc1cc(C(=O)O)ccc1S(=O)(=O)Nc1csc(-c2ccccc2)n1 [Example 103] | 6.00 to 6.30 |
| COc1cc(C(=O)O)c(F)cc1NS(=O)(=O)c1ccc2sc(-c3ccc(C4CCC(C)(C)CC4)cc3)nc2c1 [Example 664] | 6.30 to 7.00 |
| O=C(O)c1ccc(NS(=O)(=O)c2csc(-c3ccc(O)cc3)n2)c(O)c1 [Example 112] | 6.30 to 7.00 |
| CCCCOc1c(C2CCC(C)(C)CC2)ccc(-c2nc(S(=O)(=O)Nc3cc(F)c(C(=O)O)cc3OC)cs2)c1F [Example 581] | 6.30 to 7.00 |
| CCC[C@H]1CC[C@H](c2ccc(-c3nc(S(=O)(=O)Nc4cc(F)c(C(=O)O)cc4OC)cs3)c(F)c2)CC1 [Example 755] | > 7.00 |
| COc1cc(C(=O)O)c(F)cc1NS(=O)(=O)c1csc(-c2ccc(CCC(C)C)cc2)n1 [Example 625] | 6.30 to 7.00 |
| COc1cc(C(=O)O)c(F)cc1NS(=O)(=O)c1csc(-c2ccc(-c3ccc(C45CC6C[C@H](C4)C[C@H](C6)C5)cc3)cc2)n1 [Example 731] | > 7.00 |
| CC(C)Oc1cc(C(=O)O)ccc1NS(=O)(=O)c1cnc(-c2ccc(F)cc2)s1 [Example 37] | 4.00 to 6.00 |
| O=S(=O)(Nc1ccccc1)c1csc(-c2ccccc2)n1 [Example 25] | < 4.00 |
| COc1ccc(-c2nc(S(=O)(=O)Nc3ccc(C(=O)O)cc3)cs2)cc1 [Example 56, 4-((2-(4-methoxyphenyl)thiazole)-4-sulfonamido)benzoic acid] | 6.00 to 6.30 |

| Compound | pIC50 |
| --- | --- |
| O=C(O)c1ccc(NS(=O)(=O)c2cnc(-c3ccc(F)cc3)s2)c(O)c1 [Example 40, 4-((2-(4-fluorophenyl)thiazole)-5-sulfonamido)-3-hydroxybenzoic acid] | > 7.00 |
| COc1cc(C(=O)O)ccc1NS(=O)(=O)N1Cc2nc(C#CC3CCCC3)sc2C1 [Example 345] | 6.30 to 7.00 |
| COc1cc(C(=O)O)ccc1NS(=O)(=O)c1csc(-c2cccc(C)c2C)n1 [Example 156] | 6.30 to 7.00 |
| COc1cc(C(=O)O)ccc1NS(=O)(=O)c1csc(N2CCN(C(=O)c3ccccc3)CC2)n1 [Example 287] | 4.00 to 6.00 |
| COc1cc(C#N)ccc1NS(=O)(=O)c1cnc(-c2ccc(F)cc2)s1 [Example 123] | 4.00 to 6.00 |
| COc1cc(C(=O)O)c(F)cc1NS(=O)(=O)c1csc(-c2ccc([C@H]3CC[C@@H](C(C)(C)C)CC3)c(F)c2C)n1 [Example 595] | 6.30 to 7.00 |
| COc1cc(C(=O)O)ccc1NS(=O)(=O)c1coc(-c2ccc(C3CCC(C)(C)CC3)cc2)n1 [Example 420] | 6.30 to 7.00 |
| COc1cc(C(=O)O)ccc1NS(=O)(=O)c1csc(C#CC2CC2)n1 [Example 214] | > 7.00 |
| COc1cc(C(=O)O)c(F)cc1NS(=O)(=O)c1csc(-c2ccc(-c3ccc(C(F)(F)F)cc3)cc2)n1 [Example 740] | > 7.00 |
| COc1cc(C(=O)O)c(F)cc1NS(=O)(=O)c1cnn(-c2ccc([C@H]3CC[C@@H](C(C)C)CC3)cc2)c1 [Example 687] | 6.30 to 7.00 |
| COc1cc(C(=O)O)c(F)cc1NS(=O)(=O)c1csc(-c2ccc(C3=CCC(C)(C)CC3)c(C)c2F)n1 [Example 569] | > 7.00 |
| COc1cc(C(=O)O)c(F)cc1NS(=O)(=O)c1csc(-c2ccc([C@H]3CC[C@H](C(C)C)CC3)cc2)n1 [Example 730] | > 7.00 |
| CCCCC[C@H]1CC[C@H](c2ccc(-c3nc(S(=O)(=O)Nc4ccc(C(=O)O)cc4OC)cs3)c(F)c2)CC1 [Example 707] | 6.30 to 7.00 |
| O=C(O)c1cc2c(cc1F)OCCN2S(=O)(=O)c1ccc(F)cc1 [Example 9, 7-fluoro-4-((4-fluorophenyl)sulfonyl)-3,4-dihydro-2H-benzo[b][1,4]oxazine-6-carboxylic acid] | 4.00 to 6.00 |
| COc1cc(C(=O)O)c(F)cc1NS(=O)(=O)c1csc(-c2ccc(-c3ccc([C@H]4CC[C@H](C(C)C)CC4)cc3C(F)(F)F)cc2C(F)(F)F)n1 [Example 754] | 6.30 to 7.00 |
| COc1cc(C(=O)O)c(F)cc1NS(=O)(=O)c1csc(-c2ccc([C@H]3CC[C@H](C(C)(C)C)CC3)c(F)c2C)n1 [Example 596] | > 7.00 |
| COc1cc(C(=O)O)c(F)cc1NS(=O)(=O)c1cnn(-c2ccc([C@H]3CC[C@H](C(C)C)CC3)cc2)c1 [Example 688] | 6.30 to 7.00 |
| COc1cc(C(=O)O)ccc1NS(=O)(=O)c1ccc(-c2ccccc2C(F)(F)F)s1 [Example 213] | 6.30 to 7.00 |
| COc1cc(C(=O)O)c(F)cc1NS(=O)(=O)c1csc(-c2cc(F)c(C3CCC(C)(C)CC3)cc2F)n1 [Example 519] | 6.30 to 7.00 |
| COc1cc(-c2ccc(C(=O)O)cc2OC)ccc1NS(=O)(=O)c1cnc(-c2ccc(F)cc2)s1 [Example 390] | 4.00 to 6.00 |
